Patent publication US20250223328A1, “TRUNCATED DOMINANT NEGATIVE CEBPB AND CEBPD PROTEINS AND METHODS OF USE FOR DECREASING VIABILITY OF NEOPLASTIC CELLS” (The Trustees of Columbia University in the City of New York, priority 2022, published 2025)

Assays:
[1] = system: HCT116 colon cancer cells; assay: Apoptotic nuclei in HCT116 cells transfected with DNA vectors expressing the constructs; format: cell-based
From the text: FIG. 1 is a graph reporting exemplary data showing 3-box dominant negative forms of CEBPD promote apoptotic death of cancer cells. Replicate cultures of HCT116 colon cancer cells were transfected with DNA vectors expressing D-mut (a control peptide containing only the leucine zipper domain of CEBPD with all leucines in position 5 (also referred to as position “d”) of the heptad repeats mutated to glycine to suppress leucine zipper binding activity), D-1234, D-123, and D-234. Three days later, transfected cells were scored for proportion with apoptotic nuclei. Data represent means±SEM (n=4). P values vs D-mut (T-test): D-1234, p=0.0005; D-123, p=0.0014; D-234, p=0.0003.
FIG. 2 is a graph reporting exemplary data showing 2-box dominant negative forms of CEBPD promote apoptotic death of cancer cells. Replicate cultures of HCT116 cells were transfected with DNA vectors expressing D-mut, D-1234, D-12, D-23, or D-34. Three days later, transfected cells were scored for proportion with apoptotic nuclei. Data represent means±SEM (n=12 from 3 independent experiments). P values vs D-mut: D-1234, p<0.0001; D-12, p=0.056; D-23, p<0.001; D-34, p=0.0008.
FIG. 12 is a graph reporting exemplary data showing D-123EWE and D-123EKE peptides promote apoptotic death of cancer cells. Replicate cultures of HCT116 cells were transfected with an empty DNA vector or DNA vectors expressing D-123, D-123EWE, or D-123EKE. Two days later, transfected cells were scored for proportion with apoptotic nuclei. Data are pooled from two independent experiments, each with n=4. Data represent means±SEM.

[2] = system: T98G, MDA-MB-231, A375, Shep21N, and CHLA255 cell lines; assay: Cell numbers after 6 days of peptide treatment in a panel of cancer cell lines; format: cell-based; conditions: medium with 2% fetal bovine serum, five cell lines
Description: FIGS. 3A-3E are graphs reporting exemplary data showing truncated dominant negative forms of CEBPD reduce cancer cell numbers. Replicate cultures of T98G (FIG. 3A), MDA-MB-231 (FIG. 3B), A375 (FIG. 3C), Shep21N (FIG. 3D), and CHLA255 (FIG. 3E) cell lines were treated with CP-D-123 at the indicated concentrations for 6 days in culture medium containing 2% fetal bovine serum and then assessed for cell numbers. Values are given as means±SEM (N=3 replicate cultures).
FIGS. 4A-4E are graphs reporting exemplary data showing truncated dominant negative forms of CEBPD reduce cancer cell numbers. Replicate cultures of T98G (FIG. 4A), MDA-MB-231 (FIG. 4B), A375 (FIG. 4C), Shep21N (FIG. 4D), and CHLA255 (FIG. 4E) cell lines were treated with CP-D-123, CP-D-234, and Bpep (at 20 μM in T98G, MDA-MB-231, A375 only) at the indicated concentrations for 6 days in culture medium containing 2% fetal bovine serum and then assessed for cell numbers. Values are given as means±SEM (N=3 replicate cultures).

[3] = HCT116, three days after transfection, control D-mut
[4] = HCT116, two days after transfection, compared with D-123

| Substance | Proportion of transfected cells with apoptotic nuclei [1, 3] | further results |
| --- | --- | --- |
| ENEKLHQRVEQLTRDLAGLRQ (SEQ ID NO: 52 - D-234) [Construct D-234] | comparable rates to the full length D-1234 construct | – |
| ELVELEA ENEKLHQ EVEQLER (ELVELEAENEKLHQEVEQLER; SEQ ID NO: 90 - D-123EWE) [Construct D-123EWE] | – | Proportion of transfected cells with apoptotic nuclei [1, 4]: activity comparable or greater to that of the D-123 peptide |
| RQIKIWFQNRRMKWKKENEKLHQRVEQLTRDLAGLRQ (SEQ ID NO: 53 - CP-D-234) | – | Reduction of cell numbers [2]: lower and less consistent in activity than CP-D-123 |
| KLVELSAENEKLHQRVEQLTR (SEQ ID NO: 50 - D-123) [Construct D-123] | comparable rates to the full length D-1234 construct | – |
| ELVELEA KNEKLKQ EVEQLER (ELVELEAKNEKLKQEVEQLER; SEQ ID NO: 100 - D-123EKE) [Construct D-123EKE] | – | Proportion of transfected cells with apoptotic nuclei [1, 4]: activity comparable or greater to that of the D-123 peptide |
| ENEKLHQRVEQLTR (SEQ ID NO: 56 - D-23) [Construct D-23] | active in causing apoptosis | – |
| RVEQLTRDLAGLRQ (SEQ ID NO: 58 - D-34) [Construct D-34] | active in causing apoptosis | – |
| KLVELSAENEKLHQ (SEQ ID NO: 54 - D-12) [Construct D-12] | active in causing apoptosis | – |
